Data from patent US20250368648A1, “MULTI-CYCLIC IRAK AND FLT3 INHIBITING COMPOUNDS AND USES THEREOF” (CHILDREN'S HOSPITAL MEDICAL CENTER, priority 2022, published 2025).

What was measured:
FLT3 ITD, D835V = biological target: T1, FLT3 ITD, D835V (Homo sapiens, UniProt P36888, D835V, form not given); experiment: DiscoverX KINOMEscan competition binding, FLT3 ITD, D835V; conditions: no ATP
T1 construct: fused on or other part: DNA tag for qPCR read-out (T7 phage fusion, or DNA-tagged kinase made in HEK-293 cells)
T1 sequence (P36888 1-993 D835V): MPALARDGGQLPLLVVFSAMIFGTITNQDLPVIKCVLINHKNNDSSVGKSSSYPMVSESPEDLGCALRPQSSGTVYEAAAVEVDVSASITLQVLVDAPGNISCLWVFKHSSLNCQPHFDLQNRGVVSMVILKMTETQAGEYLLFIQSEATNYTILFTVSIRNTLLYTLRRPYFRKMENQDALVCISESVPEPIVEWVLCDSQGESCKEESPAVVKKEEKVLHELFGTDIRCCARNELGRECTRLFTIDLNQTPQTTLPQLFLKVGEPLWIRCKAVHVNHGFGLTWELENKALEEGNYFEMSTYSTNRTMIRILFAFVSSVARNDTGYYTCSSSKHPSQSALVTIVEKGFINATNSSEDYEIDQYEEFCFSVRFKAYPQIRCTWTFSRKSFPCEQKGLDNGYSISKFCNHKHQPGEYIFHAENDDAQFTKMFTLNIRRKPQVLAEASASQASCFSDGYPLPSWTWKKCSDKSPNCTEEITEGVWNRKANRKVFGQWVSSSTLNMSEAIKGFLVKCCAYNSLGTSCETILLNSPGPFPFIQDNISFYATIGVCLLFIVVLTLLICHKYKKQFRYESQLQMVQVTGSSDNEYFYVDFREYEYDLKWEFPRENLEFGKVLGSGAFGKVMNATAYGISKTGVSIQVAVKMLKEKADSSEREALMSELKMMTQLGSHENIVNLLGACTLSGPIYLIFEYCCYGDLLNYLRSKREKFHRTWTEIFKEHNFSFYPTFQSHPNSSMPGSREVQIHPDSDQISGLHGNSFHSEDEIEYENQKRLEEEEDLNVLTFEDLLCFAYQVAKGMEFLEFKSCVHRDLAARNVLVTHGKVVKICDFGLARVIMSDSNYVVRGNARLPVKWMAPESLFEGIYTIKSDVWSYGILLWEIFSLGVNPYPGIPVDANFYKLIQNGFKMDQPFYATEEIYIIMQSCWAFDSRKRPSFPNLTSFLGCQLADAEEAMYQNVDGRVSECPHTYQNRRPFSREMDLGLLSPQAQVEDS
From the text: (§1) Kinase binding data were obtained for various exemplary compounds prepared according to Examples 2-15 using the DiscoverX KINOMEscan® active site-directed competition binding site-directed assay protocol described below. […] As a result, the data report thermodynamic interaction affinities (Kd values), rather than IC50 values that are dependent on ATP concentrations. The assay uses a DNA-tagged version of the protein kinase, and an immobilized ligand bound to a solid support. Compounds that directly or indirectly prevent kinase binding to the immobilized ligand reduce the amount of kinase captured on the solid support, which is detected using an ultra-sensitive qPCR method. Affinity constants reported from the assay have been reported to be independent of the immobilized ligand used that is coupled to the solid support (See supplemental information in Fabian, M. A. et. al., (2005) Nat. […] Wodicka, L. […] Biol. 17, 1241-1249.) Kinase-tagged T7 phage strains were prepared in an E. coli host derived from the BL21 strain. E. coli were grown to log-phase and infected with T7 phage and incubated with shaking at 32° C. until lysis. […] Kds were determined using an 11-point 3-fold compound dilution series with three DMSO control points. […] The kinase concentration in the eluates was measured by qPCR. Binding constants (Kds) were calculated with a standard dose-response curve using the Hill equation. […]

FLT3 K663Q = biological target: T2, FLT3 K663Q (Homo sapiens, UniProt P36888, K663Q); experiment: DiscoverX KINOMEscan competition binding, FLT3 K663Q; conditions: no ATP
T2 construct: purchased DiscoverX (KINOMEscan); host or cells: E. coli (T7 phage) or HEK-293
T2 sequence (P36888 27-993 K663Q): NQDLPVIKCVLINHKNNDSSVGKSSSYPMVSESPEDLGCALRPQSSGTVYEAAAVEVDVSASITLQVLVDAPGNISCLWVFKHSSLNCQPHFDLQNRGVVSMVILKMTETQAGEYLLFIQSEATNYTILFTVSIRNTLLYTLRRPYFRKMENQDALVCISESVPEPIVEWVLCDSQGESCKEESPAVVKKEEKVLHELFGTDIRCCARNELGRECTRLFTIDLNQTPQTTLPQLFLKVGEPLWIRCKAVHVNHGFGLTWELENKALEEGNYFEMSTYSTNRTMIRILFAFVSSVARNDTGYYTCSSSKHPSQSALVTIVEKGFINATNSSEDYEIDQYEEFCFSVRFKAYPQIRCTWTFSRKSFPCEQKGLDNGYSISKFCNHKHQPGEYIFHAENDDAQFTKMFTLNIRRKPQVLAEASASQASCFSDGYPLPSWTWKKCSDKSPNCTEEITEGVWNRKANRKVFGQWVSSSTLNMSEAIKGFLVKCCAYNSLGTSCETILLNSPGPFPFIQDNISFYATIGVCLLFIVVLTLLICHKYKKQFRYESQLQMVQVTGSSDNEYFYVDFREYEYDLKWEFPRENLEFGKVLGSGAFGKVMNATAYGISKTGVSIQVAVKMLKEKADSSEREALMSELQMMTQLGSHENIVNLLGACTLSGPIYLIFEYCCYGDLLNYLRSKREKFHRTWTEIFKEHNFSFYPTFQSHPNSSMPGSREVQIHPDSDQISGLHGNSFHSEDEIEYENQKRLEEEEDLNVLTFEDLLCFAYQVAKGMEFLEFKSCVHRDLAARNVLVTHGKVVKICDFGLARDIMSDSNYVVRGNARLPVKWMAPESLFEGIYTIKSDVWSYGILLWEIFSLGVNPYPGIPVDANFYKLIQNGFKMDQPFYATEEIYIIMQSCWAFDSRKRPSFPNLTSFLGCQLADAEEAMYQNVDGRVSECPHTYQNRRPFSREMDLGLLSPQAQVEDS
From the text: as §1

SMILES: COc1cc2ncc(-c3nc(N[C@H]4CNCC[C@@H]4F)c(F)cc3F)n2nc1C1CCC1 [Compound 15a, 6-(6-cyclobutyl-7-methoxyimidazo[1,2-b]pyridazin-3-yl)-3,5-difluoro-N-((3S,4S)-4-fluoropiperidin-3-yl)pyridin-2-amine]
- Kd (FLT3 ITD, D835V): < 0.17 nM
- Kd (FLT3 K663Q): 0.62 nM
